We go through 1 substance from US20080085264A1, “METHODS FOR ENHANCING STEM CELL ENGRAFTMENT DURING TRANSPLANTATION” (priority 2003, published 2008).

In the assay the test system is DBA/2 mice. Kind of assay: G-CSF induced mobilization of HSC/HPC in DBA/2 mice (progenitor cell assays of peripheral blood). The class given is in vivo, mouse. Conditions: inhibitor treatment during G-CSF mobilization. How it is done: Mobilization was achieved by treating mice with 2.5 μg (micrograms) G-CSF/mouse 2×/day s.c. for 2 days (Broxmeyer H E, et al. J Exp Med. 1999; 189:1987-1992). Mice simultaneously treated with a specific CD26 inhibitor also underwent treatment with either 5 μmol Diprotin A/mouse 2×/day s.c. for 2 days or 5 μmol Val-Pyr/mouse 2×/day s.c. for 2 days. Diprotin A was obtained commercially (Peptides International, Louisville, Ky.) and Val-Pyr was obtained as a gift from Nicolai Wagtmann (Novo Nordisk, Denmark). After either G-CSF or G-CSF plus CD26 inhibitor treatment peripheral blood cells were collected and total cellular nuclearity was measured and progenitor cell assays were performed using total peripheral blood cells.
One-hundred thousand mouse G-CSF mobilized peripheral blood cells were plated in triplicate for colony formation by CFU-GM, BFU-E, and CFU-GEMM and scored at 7 days incubation as previously described (Cooper S, Broxmeyer H E. Measurement of interleukin-3 and other hematopoietic growth factors, such as GM-CSF, G-CSF, M-CSF, erkythropoietin and the potent co-stimulating cytokines steel factor and FLt-3 ligand. In: Coligan J E K A, Margulies D H, Shevach E M, Strober E, Coico R, ed. Current protocols in immunology. New York: John Wiley & Sons; 1996:6.4.1-6.4.12). Cells were plated for colony formation in 1% methylcellulose culture medium containing 30% FBS, 1 U/ml recombinant(r) human Epo, 0.1 mM Hemin, 5% Pokeweed Mitogen Spleen Conditioned Media (PWMSCM), and 50 ng/ml rmouse Steel Factor (=Stem Cell Factor, SCF).

Take Ile-Pro-Ile [Diprotin A]: the “reduction in BFU-E compared to G-CSF alone” value was 56%, the “reduction in CFU-GEMM compared to G-CSF alone” value was 71% and the “reduction in CFU-GM compared to G-CSF alone” value is given as 62%.
